Earlier results in patent US20220151997A1, “USE OF EPALRESTAT IN PREPARATION OF PANCREATIC CANCER DRUGS AND METHOD FOR VERIFYING INHIBITION EFFECT OF EPALRESTAT ON SECRETION OF EXOSOMES FROM PANCREATIC CANCER CELLS” (Affiliated Hospital of Nantong University, priority 2019, published 2022).

System: prostate cancer cells
Conditions: by inhibiting the Ras signaling pathway and hnRNP H1 expression

## CCCC[C@@H](C)/C=C(C)/C=C(\C)C(=O)NC1=C[C@@](O)(/C=C/C=C/C=C/C(=O)NC2=C(O)CCC2=O)[C@@H]2O[C@@H]2C1=O [Manumycin A]
  production and secretion of the exosomes: inhibits
